Source: ChEMBL document CHEMBL5321213, “Nicolaioidesin C: An Antiausterity Agent Shows Promising Antitumor Activity in a Pancreatic Cancer Xenograft Mouse Model” (J Nat Prod, 2023)
Active and inactive are the calls of the source. The calls are words filed in the database; no cut-off is given here.

Legend:
MIA PaCa-2 [1] = assay: Antitumor activity against human MIA PaCa-2 cells xenografted in athymic BALB/c-nu mouse assessed as fold change in D-ribulose 5-phosphate level in tumor at 2 mg/kg/day, ip administered five times per week for 4 weeks by LC-MS analysis; type: functional
MIA PaCa-2 [2] = assay: Antitumor activity against human MIA PaCa-2 cells xenografted in athymic BALB/c-nu mouse assessed as fold change in D-glucuronicacid level in tumor at 10 mg/kg/day, ip administered five times per week for 4 weeks by LC-MS analysis; type: functional
MIA PaCa-2 [3] = assay: Inhibition of autophagy in human MIA PaCa-2 cells in nutrient-deprived medium assessed as downregulation of LC3-II protein expression measured after 6 hrs by Western blot analysis; type: functional, cell-based; details: dose 5-20 µM
MIA PaCa-2 [4] = assay: Antitumor activity against human MIA PaCa-2 cells xenografted in athymic BALB/c-nu mouse assessed as fold change in cytidine level in tumor at 2 mg/kg/day, ip administered five times per week for 4 weeks by LC-MS analysis; type: functional
MIA PaCa-2 [5] = assay: Inhibition of Akt/mTOR signaling pathway in human MIA PaCa-2 cells in DMEM media assessed as reduction in mTOR phosphorylation at S2481 residue at 5 to 20 uM measured after 6 hrs by Western blot analysis; type: cell-based; details: dose 5-20 µM
MIA PaCa-2 [6] = assay: Antitumor activity against human MIA PaCa-2 cells xenografted in athymic BALB/c-nu mouse assessed as fold change in asparagine level in tumor at 2 mg/kg/day, ip administered five times per week for 4 weeks by LC-MS analysis; type: functional
MIA PaCa-2 [7] = assay: Antitumor activity against human MIA PaCa-2 cells xenografted in athymic BALB/c-nu mouse assessed as fold change in desthiobiotin level in tumor at 10 mg/kg/day, ip administered five times per week for 4 weeks by LC-MS analysis; type: functional
MIA PaCa-2 [8] = assay: Antitumor activity against human MIA PaCa-2 cells xenografted in athymic BALB/c-nu mouse assessed as reduction in mTOR phosphorylation at S2481 residue in tumor at 10 mg/kg/day, ip administered five times per week for 4 weeks by Western blot analysis; type: functional, organism-based
MIA PaCa-2 [9] = assay: Antitumor activity against human MIA PaCa-2 cells xenografted in athymic BALB/c-nu mouse assessed as fold change in Gly-Leu metabolite level in tumor at 2 mg/kg/day, ip administered five times per week for 4 weeks by LC-MS analysis; type: functional
MIA PaCa-2 [10] = assay: Antimetastatic activity in human MIA PaCa-2 cells in DMEM media assessed as inhibition of colony formation at 40 uM incubated for 24 hrs followed by replacement with fresh medium and measured after 10 days by crystal violet staining-based assay relative to control; type: functional
MIA PaCa-2 [11] = assay: Antitumor activity against human MIA PaCa-2 cells xenografted in athymic BALB/c-nu mouse assessed as fold change in cytidine 5'-monophosphate-Neu5Ac level in tumor at 2 mg/kg/day, ip administered five times per week for 4 weeks by LC-MS analysis; type: functional
MIA PaCa-2 [12] = assay: Inhibition of Akt/mTOR signaling pathway in human MIA PaCa-2 cells in DMEM media assessed as reduction in AKT phosphorylation at S473 residue at 5 to 20 uM measured after 6 hrs by Western blot analysis; type: cell-based; details: dose 5-20 µM
MIA PaCa-2 [13] = assay: Antitumor activity against human MIA PaCa-2 cells xenografted in athymic BALB/c-nu mouse assessed as fold change in 2,6-diaminopimelicacid level in tumor at 10 mg/kg/day, ip administered five times per week for 4 weeks by LC-MS analysis; type: functional
MIA PaCa-2 [14] = assay: Antitumor activity against human MIA PaCa-2 cells xenografted in athymic BALB/c-nu mouse assessed as fold change in serine level in tumor at 2 mg/kg/day, ip administered five times per week for 4 weeks by LC-MS analysis; type: functional
MIA PaCa-2 [15] = assay: Antitumor activity against human MIA PaCa-2 cells xenografted in athymic BALB/c-nu mouse assessed as fold change in 2,6-diaminopimelicacid level in tumor at 2 mg/kg/day, ip administered five times per week for 4 weeks by LC-MS analysis; type: functional
MIA PaCa-2 [16] = assay: Antitumor activity against human MIA PaCa-2 cells xenografted in athymic BALB/c-nu mouse assessed as tumor growth inhibition at 2 mg/kg/day, ip administered five times per week for 4 weeks relative to control; type: functional; details: MIA PaCa-2, 672 h, read-out: TGI
MIA PaCa-2 [17] = assay: Antitumor activity against human MIA PaCa-2 cells xenografted in athymic BALB/c-nu mouse assessed as fold change in biotin level in tumor at 10 mg/kg/day, ip administered five times per week for 4 weeks by LC-MS analysis; type: functional
PANC-1 [18] = assay: Preferential cytotoxicity against human PANC-1 cells in nutrient-deprived medium assessed as alteration in cell morphology by measuring cell blebbing at 5 uM measured after 24 hrs by acridine orange and ethidium bromide dual fluorescent staining based imaging analysis; type: functional
MIA PaCa-2 [19] = assay: Antitumor activity against human MIA PaCa-2 cells xenografted in athymic BALB/c-nu mouse assessed as fold change in hypoxanthine level in tumor at 10 mg/kg/day, ip administered five times per week for 4 weeks by LC-MS analysis; type: functional
PANC-1 [20] = assay: Preferential cytotoxicity against human PANC-1 cells in nutrient-deprived medium assessed as alteration in cell morphology by measuring rupture of cell membrane at 5 uM measured after 24 hrs by acridine orange and ethidium bromide dual fluorescent staining based imaging analysis; type: functional
MIA PaCa-2 [21] = assay: Antitumor activity against human MIA PaCa-2 cells xenografted in athymic BALB/c-nu mouse assessed as fold change in 4-(methylthio)-2-oxobutyric acid level in tumor at 2 mg/kg/day, ip administered five times per week for 4 weeks by LC-MS analysis; type: functional
MIA PaCa-2 [22] = assay: Antitumor activity against human MIA PaCa-2 cells xenografted in athymic BALB/c-nu mouse assessed as fold change in sphinganine level in tumor at 2 mg/kg/day, ip administered five times per week for 4 weeks by LC-MS analysis; type: functional
MIA PaCa-2 [23] = assay: Antitumor activity against human MIA PaCa-2 cells xenografted in athymic BALB/c-nu mouse assessed as fold change in cytidine 5'-monophosphate level in tumor at 10 mg/kg/day, ip administered five times per week for 4 weeks by LC-MS analysis; type: functional
PANC-1 [24] = assay: Preferential cytotoxicity against human PANC-1 cells in nutrient-deprived medium assessed as alteration in cell morphology by measuring leakage of cell components at 5 uM measured after 24 hrs by acridine orange and ethidium bromide dual fluorescent staining based imaging analysis; type: functional
MIA PaCa-2 [25] = assay: Antitumor activity against human MIA PaCa-2 cells xenografted in athymic BALB/c-nu mouse assessed as fold change in D-glucosamine 6-phosphate level in tumor at 10 mg/kg/day, ip administered five times per week for 4 weeks by LC-MS analysis; type: functional
PANC-1 [26] = assay: Preferential cytotoxicity against human PANC-1 cells in nutrient-deprived medium measured after 24 hrs by WST-8 cell counting analysis; type: functional
MIA PaCa-2 [27] = assay: Inhibition of Akt/mTOR signaling pathway in human MIA PaCa-2 cells in nutrient-deprived medium assessed as reduction in mTOR phosphorylation at S2481 residue measured after 6 hrs by Western blot analysis; type: cell-based; details: dose 5-20 µM
MIA PaCa-2 [28] = assay: Antitumor activity against human MIA PaCa-2 cells xenografted in athymic BALB/c-nu mouse assessed as fold change in D-ribulose5-phosphate level in tumor at 10 mg/kg/day, ip administered five times per week for 4 weeks by LC-MS analysis; type: functional

COc1cc(O)c(C(=O)[C@@H]2CC=C(CCC=C(C)C)C[C@H]2c2ccccc2)c(O)c1
fold change (FC) (MIA PaCa-2 [1]): 0.22 | fold change (FC) (MIA PaCa-2 [2]): 0.68 | inhibition (MIA PaCa-2 [3]): Dose-Dependent Effect | fold change (FC) (MIA PaCa-2 [4]): 0.62 | inhibition (MIA PaCa-2 [5]): inactive | fold change (FC) (MIA PaCa-2 [6]): 0.33 | fold change (FC) (MIA PaCa-2 [7]): 0.4 | Activity (MIA PaCa-2 [8]): Active | fold change (FC) (MIA PaCa-2 [9]): 0.45 | inhibition at 40 µM (MIA PaCa-2 [10]): 99% | fold change (FC) (MIA PaCa-2 [11]): 0.43 | inhibition (MIA PaCa-2 [12]): inactive | fold change (FC) (MIA PaCa-2 [13]): 0.36 | fold change (FC) (MIA PaCa-2 [14]): 0.49 | fold change (FC) (MIA PaCa-2 [15]): 0.53 | inhibition in vivo at 2 mg/kg/day (MIA PaCa-2 [16]): 51% | fold change (FC) (MIA PaCa-2 [17]): 0.43 | Activity (PANC-1 [18]): Active | fold change (FC) (MIA PaCa-2 [19]): 0.4 | Activity (PANC-1 [20]): Active | fold change (FC) (MIA PaCa-2 [21]): 0.48 | fold change (FC) (MIA PaCa-2 [22]): 1.87 | fold change (FC) (MIA PaCa-2 [23]): 0.31 | Activity (PANC-1 [24]): Active | fold change (FC) (MIA PaCa-2 [25]): 0.36 | PC50 (PANC-1 [26]): 3.4 µM | inhibition (MIA PaCa-2 [27]): Dose-Dependent Effect | fold change (FC) (MIA PaCa-2 [28]): 0.22
